Results published in patent US20250214977A1, “STAT6 INHIBITORS AND USES THEREOF” (Kymera Therapeutics, Inc., priority 2024, published 2025).

Each compound was assayed on Phosphorylation of STAT6 in human A549 cells (assay: Phosphorylated STAT6 (pSTAT6) flow cytometry assay in human A549 cells). Conditions: read-out: STAT6 IL4 pSTAT6 assay in A549 cells: Average IC50.
Type: cell-based
Description: Example 3. Phosphorylated STAT6 (pSTAT6) Flow Cytometry Assay in Human A549 Cells
Phosphorylation of STAT6 in human A549 cells was quantitatively measured using flow cytometry technology.

Compound	IC50
CNc1ccc(-c2cc(C3=CCCN(C(=O)CCn4ccnn4)C3)c(F)c3[nH]c(C(=O)N4CCN(c5ncccc5OC)CC4)cc23)c(OC)c1 [Example I-580]	< 100 nM
C#Cc1cc(C2=CCCN(C(=O)CCn3ccnn3)C2)cc2cc(C(=O)N(C)C)oc12 [Example I-373, 5-(1-(3-(1H-1,2,3-triazol-1-yl)propanoyl)-1,2,5,6-tetrahydropyridin-3-yl)-7-ethynyl-N,N-dimethylbenzofuran-2-carboxamide]	100 to 1000 nM
COc1cc(C)ncc1-c1cc(C2=CCCN(C(=O)CCn3ccnn3)C2)c(F)c2[nH]c(C(=O)N3CCN(c4ncccc4OC)CC3)cc12 [Example I-570]	< 100 nM
COc1ccccc1-c1cc(C2=CCCN(C(=O)CCn3ccnn3)C2)c(F)c2[nH]c(C(=O)N3CCN(c4ncccc4OC4CC4)CC3)cc12 [Example I-336]	< 100 nM
COc1cc(F)cnc1N1CCN(C(=O)c2cc3c(-c4cc(C5(C#N)CC5)ccc4F)cc(C4=CCCN(C(=O)CCn5ccnn5)C4)c(F)c3[nH]2)CC1 [Example I-650]	< 100 nM
COc1cc(F)cnc1N1CCN(C(=O)c2cc3c(-c4ccc5c(C)nn(C)c5c4)cc(C4=CCCN(C(=O)CCn5ccnn5)C4)c(F)c3[nH]2)CC1 [Example I-623]	< 100 nM
COc1cccc(N2CCN(C(=O)c3cc4c(-c5cc(F)c(F)cc5OC)cc(C5=CCCN(C(=O)CCn6ccnn6)C5)c(F)c4[nH]3)CC2)n1 [Example I-590]	< 100 nM
COc1cccc(N2CCN(C(=O)c3cc4c(-c5cnccc5OC)cc(C5=CCCN(C(=O)CCn6ccnn6)C5)c(F)c4[nH]3)CC2)n1 [Example I-440]	< 100 nM
COc1ncccc1-c1cc(C2=CCCN(C(=O)CCn3ccnn3)C2)c(F)c2[nH]c(C(=O)N3CCN(c4ncccc4OC4CC4)CC3)cc12 [Example I-595]	< 100 nM
CCc1ccc(-c2cc(C(=O)N3CCN(c4ncc(F)cc4OC)CC3)cc3cc(C4=CCCN(C(=O)C5CC5C(=O)O)C4)n(CC4CC4)c23)c(C)n1 (stereo not shown) [Example I-545]	< 100 nM

More lines, now with the values ahead:

IC50	Compound
< 100 nM	CCOc1ccncc1-c1cc(C2=CCCN(C(=O)CCn3ccnn3)C2)c(F)c2[nH]c(C(=O)N3CCN(c4cnc(C)nc4OC)CC3)cc12 [Example I-1036]
100 to 1000 nM	CCC1CCCC=C1c1cc(C2=CCCN(C(=O)CCn3ccnn3)C2)c(F)c2[nH]c(C(=O)N3CCN(c4ncccc4OC)CC3)cc12 (stereo not shown) [Example I-1168]
100 to 1000 nM	CCCN(C)C(=O)c1cc2cc(C3=CCCN(C(=O)CCn4ccnn4)C3)ccc2o1 [Example I-817]
10000 to 100000 nM	COc1cccnc1N1CCN(C(=O)c2cc3c(C4CCC5(CCNCC5)CC4)cc(C4=CCCN(C(=O)CCn5ccnn5)C4)c(F)c3[nH]2)CC1 [Example I-698]
< 100 nM	COc1ccccc1-c1cc(C2=CCCN(C(=O)CCn3ccnn3)C2)c(F)c2[nH]c(C(=O)N3CCN(c4ncnc5ncn(C)c45)CC3)cc12 [Example I-920]
100 to 1000 nM	COc1cccnc1N1CCN(C(=O)c2cc3c(-c4cccc(F)c4OC)cc(C4=CCCN(C(=O)CCn5ccnn5)C4)c(F)c3[nH]2)C(C)C1 (stereo not shown) [Example I-973]
> 100000 nM	CNc1ccc(-c2cc(C3=CCCN(C(=O)CCn4ccnn4)C3)cc3[nH]c(C(=O)N(C)C)cc23)c(OC)c1 [Example I-1051]
100 to 1000 nM	CN(C)C(=O)c1cc2cc(C3=CCCN(C(=O)CCn4ccnn4)C3)cc(NCc3ccc(C(F)(F)F)cc3)c2o1 [Example I-877]
< 100 nM	COc1cc(F)cnc1N1CCN(C(=O)c2cc3c(-c4cccc(CN5CCOCC5)c4)cc(C4=CCCN(C(=O)CCn5ccnn5)C4)c(F)c3[nH]2)CC1 [Example I-1154]
< 100 nM	CN(C)C(=O)c1cc2c(-c3ccccc3S(C)(=O)=O)cc(C3=CCCN(C(=O)CCn4ccnn4)C3)c(F)c2[nH]1 [Example I-1068]
10000 to 100000 nM	CCc1ccccc1-c1cc(C2=CCCN(C(=O)CCn3ccnn3)C2)c(F)c2[nH]c(C(=O)N3Cc4cnn(C)c4C3)cc12 [Example I-700]
< 100 nM	COc1ccncc1-c1cc(C2=CCCN(C(C)=O)C2)c(F)c2[nH]c(C(=O)N(C)C)cc12 [Example I-1094]
